From ChEMBL document CHEMBL1147815, “Stilbene-based anticancer agents: resveratrol analogues active toward HL60 leukemic cells with a non-specific phase mechanism” (Bioorg Med Chem Lett, 2006) come the findings set out here.

Activity calls are given as the source filed them. The rule behind the calls is not given here.

By IC50 is commonly meant the point on the concentration scale where inhibition reaches its midpoint. What is called AC50 is the midpoint of the concentration-response curve, whichever way the signal moves. Higher therefore signals weaker potency.

Format in all cases: functional, cell-based
For test [1], the system named is HL-60. In words: Antiproliferative activity against human HL60 cells.
Test [2] concerns HL-60. In words: Apoptosis inducing activity in human HL60 cells.
Test [3] relates to HL-60. In words: Induction of partial block of S phase in HL60 cells. To be noted: Homo sapiens.
The test system of test [4] is HL-60. Nature of the test: Induction of apoptotic sub-G0/G1 phase in HL60 cells. To be noted: Homo sapiens.
Test [5] deals with HL-60. In words: Decrease of HL60 cells at G0/G1 phase. The following applies: Homo sapiens.
For test [6], the system named is HL-60. Nature of the test: Decrease of HL60 cells at S phase. The following applies: Homo sapiens.
Test [7] has as its system HL-60. In words: Decrease of HL60 cells at G2/M phase. The following applies: Homo sapiens.

The compound `COc1cccc(/C=C\c2cc(OC)cc(OC)c2)c1` showed an IC50 in test [1] of 2.8 µM. Moreover, the AC50 in test [2] was found to be 5.4 µM.
Taken in the same sequence, the figures for `Cc1ccc(/C=C/c2ccc(O)cc2)cc1C` were 3.5 µM and 6 µM.
On the same counts, the results for `COc1cccc(/C=C/c2cc(OC)cc(OC)c2)c1` are 37 µM and 70 µM.
With `COc1ccc(/C=C/c2cc(OC)cc(OC)c2)cc1`, the result in test [3] and in test [4] was Active.
The compound `COc1ccc(/C=C\c2cc(OC)cc(OC)c2)cc1` [8Z-3,4',5-TRIMETHOXYSTILBENE] had a 50% inhibitory concentration (IC50) in test [1] of 0.15 µM. This compound also gave an AC50 in test [2] of 0.24 µM. Besides, the result in test [4], in test [5], in test [6] and in test [7] was Active.
`COc1cc(/C=C/c2cc(OC)c(OC)c(OC)c2)cc(OC)c1` showed an IC50 in test [1] of 22 µM. The compound also came in with a concentration at half-maximal activity (AC50) in test [2] of 42 µM.
Take `O=[N+]([O-])c1ccc(/C=C/c2ccc(O)cc2)cc1`: the IC50 in test [1] stood at 2.5 µM. Besides, in test [2], the activity was half-maximal at 4.8 µM (AC50). Also, the outcome in test [3] and in test [4] was Active.
In test [1], `COc1cc(/C=C\c2cc(OC)c(OC)c(OC)c2)cc(OC)c1` registered an IC50 of 1.8 µM. For the same compound, the half-maximal activity concentration (AC50) in test [2] was 2.6 µM. Moreover, the result in test [3] and in test [4] was Active.
